Our source for the Ki and IC50 values is patent publication US12528812B2 (Genentech, Inc., priority 2020, dated 2026).

In assay [1] the target is Recombinant human JAK2 kinase domain protein (Residues 812-1132) (Homo sapiens, UniProt O60674). Briefly: JAK2 biochemical assay (LabChip mobility shift, Ki). The conditions noted are these: Biochem JAK2 Ki.
Procedure: The in vitro biochemical assays quantify JAK-catalyzed phosphorylation of a synthetic peptide, as detected using a LabChip® EZ Reader II microfluidic mobility shift instrument (PerkinElmer; Waltham, MA). […] Y-1B is fluorescently labeled on the N-terminus with 5-FAM (5-carboxyfluorescein) and contains a single tyrosine residue (Y) that can be phosphorylated by JAK activity. The substrate peptide stock is prepared in DMSO at 5 mM. […] In each titration experiment, test compound was tested in duplicate at each of the twelve concentrations. Blank reactions contained ATP, peptide, and DMSO, but no JAK or test compound, whereas uninhibited control reactions contained ATP, peptide, JAK, and DMSO, but no test compound.
Peptide plus ATP mixture (24 μL) was added to 1 μL of test compound in DMSO (or DMSO alone). The reactions were initiated by adding 25 μL of JAK enzyme to the inhibitor/peptide/ATP mixture before thoroughly mixing the resultant solution. Reactions were incubated at room temperature (22° C.-23° C.) in a final volume of 50 μL per well in 384-well plates. After a 30-minute incubation, the reactions were stopped by adding 25 μL of 150 mM ethylenediaminetetraacetic acid in 100 mM HEPES buffer (pH 7.2) containing 0.015% Brij 35 to each well.
In each reaction, the residual Y-1B substrate and the phospho-peptide product generated were separated using the EZ Reader II instrument. Electrophoretic separation of molecules of product from molecules of substrate was achieved using downstream and upstream voltages of −500 and −2600 V, respectively, at an operating pressure of −1.3 psi.
The extent (or percent) of conversion of substrate to product was calculated from the corresponding peak heights in the electropherogram using HTS Well Analyzer software, Version 5.2 (PerkinElmer), and the following equation (Equation 1): conversion=[P÷(S+P)]×100 Equation 1% where S and P represent the peak heights of the substrate and product, respectively. After any baseline signal from blank wells containing no JAK was subtracted from the signal of all test wells, the % conversion data were converted to fractional activity as shown in Equation 2, where vi and vo are the % conversion in the presence and absence of test compound, respectively.
Assay [2] concerns the target T1, recombinant human JAK1 kinase domain protein (Residues 854-1154) (Homo sapiens, UniProt P23458).
T1 construct: human JAK1 kinase domain protein (Residues 854-1154); purchased Proteros Biostructures GmbH (Martinsried, Germany); host or cells: insect cells
Briefly: JAK1 biochemical assay (LabChip mobility shift, Ki). The conditions noted are these: read-out: Biochem JAK1 Ki.

Assay [3] concerns IL-13-stimulated STAT6 phosphorylation in human lung bronchial epithelial BEAS-2B cell line. Nature of the assay: P-STAT6 BEAS-2B + IL-13 cell assay. It is filed as cell-based. The settings on record: Homo sapiens, BEAS-2B, BEAS2B cells, IL13 stimulation; read-out: Cellular JAK1 PSTAT6 BEAS2B + IL13. As to the method:
In order to study the effect of JAK1 inhibitors in a cell line that is relevant to the cell biology of human asthma, an IL-13-stimulated STAT6 phosphorylation assay in the human lung bronchial epithelial BEAS-2B cell line was developed.
BEAS-2B cells (ATCC′ CRL-9609™) were grown in Bronchial Epithelial Growth Medium (BEGM) (Lonza Catalog No. CC-3170; Walkersville, MD; or PromoCell Catalog No. C-21060; Heidelberg, Germany). Test compound stock solutions (0.5 mM in DMSO) were serially diluted 1:2 in DMSO to generate a 10-point concentration curve (at 500× test concentration), which was further diluted by a 50-fold dilution step in BEGM to generate a 10× concentration curve (in 2% DMSO). Cells were plated at 100,000 cells/well in 200 μL of BEGM in 96-well plates and incubated for 48 hours at 37° C. in a humidified incubator. Medium was aspirated from the cells and replaced with 70 μL of fresh BEGM. Diluted test compound (10 μL; or 2% DMSO in assay medium) was added to the cells, and the plates were incubated for 1 hour at 37° C. in a humidified incubator. Twenty μL of 250 ng/mL human recombinant IL-13 (Bio Techne Catalog No. 213-ILB) was then added to the cells and incubated for 15 minutes at 37° C. Medium was aspirated from the cells and 60 μL of ice-cold 1× cell lysis buffer (Cell Signaling Technologies; Catalog No. 9803S) containing 1 mM PMSF was added to the cells. Assay plates were incubated at −80° C. for at least 1 hour. P-STAT6 was measured by coating GAR plates (MSD; Catalog No. L45RA-1) with rabbit anti-human total STAT6 antibody (Cell Signaling Technologies; Catalog No. 9362S), incubating the cell lysates in the coated plates overnight at 4° C., and then detecting with mouse anti-phospho-STAT6 (Tyr641) Clone 16E12 antibody (Millipore; Catalog No. 05-590, custom labeled by MSD with SULFO-tag) using standard MSD plate processing, washing, and detection protocols. Plates were read on the MESO SECTOR 5600.
Data analysis was performed by subtracting negative control values from all wells and determining percent of control using the positive control values; the IC50 was determined with a four-parameter logistic fit model as shown in Equation 4.

Recombinant human JAK2 kinase domain protein (Residues 812-1132), sequence (O60674 812-1132): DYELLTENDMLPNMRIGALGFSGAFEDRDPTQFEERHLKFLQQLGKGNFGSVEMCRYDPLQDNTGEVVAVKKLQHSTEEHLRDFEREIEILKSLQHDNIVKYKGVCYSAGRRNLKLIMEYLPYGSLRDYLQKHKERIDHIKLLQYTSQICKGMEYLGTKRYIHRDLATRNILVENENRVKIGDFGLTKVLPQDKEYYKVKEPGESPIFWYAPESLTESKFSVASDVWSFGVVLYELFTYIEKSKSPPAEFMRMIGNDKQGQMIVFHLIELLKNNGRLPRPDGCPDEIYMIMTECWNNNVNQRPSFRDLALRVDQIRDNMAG
T1 sequence (P23458 854-1154): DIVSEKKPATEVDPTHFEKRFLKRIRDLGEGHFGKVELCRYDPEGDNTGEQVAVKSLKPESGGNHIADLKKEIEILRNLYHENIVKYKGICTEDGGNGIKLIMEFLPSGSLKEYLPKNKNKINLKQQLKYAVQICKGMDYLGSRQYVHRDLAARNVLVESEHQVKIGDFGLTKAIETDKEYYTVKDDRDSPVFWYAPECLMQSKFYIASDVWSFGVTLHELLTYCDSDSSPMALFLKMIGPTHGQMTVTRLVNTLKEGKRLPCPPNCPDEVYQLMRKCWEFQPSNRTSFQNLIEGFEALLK

For the molecule `CN(C)C1CCCN(C(=O)c2cccc(Oc3ccc(OC(F)F)c(-c4nn(C)cc4NC(=O)c4cnn5cccnc45)c3)c2)C1` (racemic) [Example 213, N-[3-[2-(difluoromethoxy)-5-[3-[rac-(3R)-3-(dimethylamino)piperidine-1-carbonyl]phenoxy]phenyl]-1-methyl-pyrazol-4-yl]pyrazolo[1,5-a]pyrimidine-3-carboxamide], the Ki in assay [1] stood at 890 pM; in assay [2], 1200 pM. The IC50 in assay [3] came to 49000 pM.

Turning to `Cn1cc(NC(=O)c2cnn3cccnc23)c(-c2cc(Oc3cccc([C@@H]4COCCN4)c3)ccc2OC(F)F)n1` (stereo in doubt) [Example 32, N-[3-[2-(difluoromethoxy)-5-[3-[rac-(3R)-morpholin-3-yl]phenoxy]phenyl]-1-methyl-pyrazol-4-yl]pyrazolo[1,5-a]pyrimidine-3-carboxamide], the Ki worked out at 390 pM in assay [1] and 670 pM in assay [2]. For the same molecule, the IC50 in assay [3] came to 46000 pM.

For the molecule `Cn1cc(NC(=O)c2cnn3cccnc23)c(-c2cc(Oc3cccc([C@H]4COCCN4)c3)ccc2OC(F)F)n1` (stereo in doubt) [Example 33, N-[3-[2-(difluoromethoxy)-5-[3-[rac-(3S)-morpholin-3-yl]phenoxy]phenyl]-1-methyl-pyrazol-4-yl]pyrazolo[1,5-a]pyrimidine-3-carboxamide], the results for the Ki in assay [1] and in assay [2] were 430 pM and 950 pM, respectively. In addition, in assay [3], the IC50 is 62000 pM.

With `Cn1cc(NC(=O)c2cnn3cccnc23)c(-c2cc(Oc3cccc(CN4CCO[C@@H](CO)C4)c3)ccc2OC(F)F)n1` (stereo in doubt) [Example 75, N-[3-[2-(difluoromethoxy)-5-[3-[[rac-(2S)-2-(hydroxymethyl)morpholin-4-yl]methyl]phenoxy]phenyl]-1-methyl-pyrazol-4-yl]pyrazolo[1,5-a]pyrimidine-3-carboxamide], the Ki amounted to 890 pM in assay [1] and 840 pM in assay [2]. Moreover, the IC50 in assay [3] was 96000 pM.

As to `Cn1cc(NC(=O)c2cnn3cccnc23)c(-c2cc(Oc3cccc(CN4CCO[C@H](CO)C4)c3)ccc2OC(F)F)n1` (stereo in doubt) [Example 94, N-[3-[2-(difluoromethoxy)-5-[3-[[rac-(2R)-2-(hydroxymethyl)morpholin-4-yl]methyl]phenoxy]phenyl]-1-methyl-pyrazol-4-yl]pyrazolo[1,5-a]pyrimidine-3-carboxamide], the Ki in assay [1] is 1100 pM; in assay [2], 1700 pM. Further, in assay [3], the IC50 is 40000 pM.

In the case of `Cn1cc(NC(=O)c2cnn3cccnc23)c(-c2cc(Oc3cnn([C@H]4CNCC[C@@H]4O)c3)ccc2OC(F)F)n1` (stereo in doubt) [Example 180, N-[3-[2-(difluoromethoxy)-5-[1-[rac-(3S,4S)-4-hydroxy-3-piperidyl]pyrazol-4-yl]oxy-phenyl]-1-methyl-pyrazol-4-yl]pyrazolo[1,5-a]pyrimidine-3-carboxamide], the Ki in assay [1] amounted to 230 pM; in assay [2], 290 pM. For the same molecule, the IC50 in assay [3] stood at 95000 pM.

As for `CN1CC[C@@H](O)[C@H](n2cc(Oc3ccc(OC(F)F)c(-c4nn(C)cc4NC(=O)c4cnn5cccnc45)c3)cn2)C1` (stereo in doubt) [Example 185, N-[3-[2-(difluoromethoxy)-5-[1-[rac-(3R,4R)-4-hydroxy-l-methyl-3-piperidyl]pyrazol-4-yl]oxy-phenyl]-1-methyl-pyrazol-4-yl]pyrazolo[1,5-a]pyrimidine-3-carboxamide], the Ki in assay [1] is 210 pM; in assay [2], 330 pM. The IC50 in assay [3] came out at 62000 pM.

In the case of `NCc1ccc(Oc2ccc(OC(F)F)c(-c3n[nH]cc3NC(=O)c3cnn4cccnc34)c2)cc1` [Example 3, N-[3-[5-[4-(aminomethyl)phenoxy]-2-(difluoromethoxy)phenyl]-1H-pyrazol-4-yl]pyrazolo[1,5-a]pyrimidine-3-carboxamide], the Ki in assay [1] was found to be 890 pM; in assay [2], 3300 pM. Further, the IC50 in assay [3] was 15000 pM.

On to `O=C(Nc1c[nH]nc1-c1cc(Oc2cccc(OCC(F)(F)F)c2)ccc1OC(F)F)c1cnn2cccnc12` [Example 4, N-[3-[2-(difluoromethoxy)-5-[3-(2,2,2-trifluoroethoxy)phenoxy]phenyl]-1H-pyrazol-4-yl]pyrazolo[1,5-a]pyrimidine-3-carboxamide], for which the inhibition constant Ki in assay [1] turned out to be 700 pM; in assay [2], 1100 pM. Also, in assay [3], the IC50 was found to be 18000 pM.

As to `O=C(Nc1c[nH]nc1-c1cc(Oc2ccc(OCC(F)(F)F)cc2)ccc1OC(F)F)c1cnn2cccnc12` [Example 5, N-[3-[2-(difluoromethoxy)-5-[4-(2,2,2-trifluoroethoxy)phenoxy]phenyl]-1H-pyrazol-4-yl]pyrazolo[1,5-a]pyrimidine-3-carboxamide], the Ki amounted to 910 pM in assay [1] and 1100 pM in assay [2]. Besides, the IC50 in assay [3] stood at 18000 pM.

As to `NCc1cccc(Oc2ccc(OC(F)F)c(-c3n[nH]cc3NC(=O)c3cnn4cccnc34)c2)c1` [Example 6, N-[3-[5-[3-(aminomethyl)phenoxy]-2-(difluoromethoxy)phenyl]-1H-pyrazol-4-yl]pyrazolo[1,5-a]pyrimidine-3-carboxamide], the Ki stood at 200 pM in assay [1] and 230 pM in assay [2]. Also, the IC50 in assay [3] worked out at 11000 pM.

`NCc1ccccc1Oc1ccc(OC(F)F)c(-c2n[nH]cc2NC(=O)c2cnn3cccnc23)c1` [Example 7, N-[3-[5-[2-(aminomethyl)phenoxy]-2-(difluoromethoxy)phenyl]-1H-pyrazol-4-yl]pyrazolo[1,5-a]pyrimidine-3-carboxamide]: the Ki in assay [1] turned out to be 1900 pM; in assay [2] it was 1500 pM. For the same molecule, the IC50 in assay [3] came to 360000 pM.

As to `N#CCc1ccc(Oc2ccc(OC(F)F)c(-c3n[nH]cc3NC(=O)c3cnn4cccnc34)c2)cc1` [Example 8, N-[3-[5-[4-(cyanomethyl)phenoxy]-2-(difluoromethoxy)phenyl]-1H-pyrazol-4-yl]pyrazolo[1,5-a]pyrimidine-3-carboxamide], the Ki in assay [1] stood at 140 pM; in assay [2], 180 pM. Moreover, the IC50 in assay [3] worked out at 7600 pM.

As to `O=C(Nc1c[nH]nc1-c1cc(Oc2cccc(C3CNCCO3)c2)ccc1OC(F)F)c1cnn2cccnc12` (stereo not drawn) [Example 9, N-[3-[2-(difluoromethoxy)-5-(3-morpholin-2-ylphenoxy)phenyl]-1H-pyrazol-4-yl]pyrazolo[1,5-a]pyrimidine-3-carboxamide], the Ki in assay [1] stood at 360 pM; in assay [2], 340 pM. Further, the IC50 in assay [3] amounted to 93000 pM.

Take `Cc1ccc(Oc2ccc(OC(F)F)c(-c3n[nH]cc3NC(=O)c3cnn4cccnc34)c2)cc1C(=O)N(C)C` [Example 10, N-[3-[2-(difluoromethoxy)-5-[3-(dimethylcarbamoyl)-4-methyl-phenoxy]phenyl]-1H-pyrazol-4-yl]pyrazolo[1,5-a]pyrimidine-3-carboxamide]: the Ki in assay [1] turned out to be 180 pM; in assay [2] it was 240 pM. Moreover, in assay [3], the IC50 came to 42000 pM.

For the molecule `O=C(Nc1c[nH]nc1-c1cc(Oc2cccc(CNC3COC3)c2)ccc1OC(F)F)c1cnn2cccnc12` [Example 11, N-[3-[2-(difluoromethoxy)-5-[3-[(oxetan-3-ylamino)methyl]phenoxy]phenyl]-1H-pyrazol-4-yl]pyrazolo[1,5-a]pyrimidine-3-carboxamide], the Ki in assay [1] amounted to 690 pM; in assay [2] it was 1000 pM. Further, in assay [3], the IC50 was 190000 pM.

As for `N#CCc1cccc(Oc2ccc(OC(F)F)c(-c3n[nH]cc3NC(=O)c3cnn4cccnc34)c2)c1` [Example 12, N-[3-[5-[3-(cyanomethyl)phenoxy]-2-(difluoromethoxy)phenyl]-1H-pyrazol-4-yl]pyrazolo[1,5-a]pyrimidine-3-carboxamide], the Ki in assay [1] and in assay [2] was 210 pM each time. Further, the IC50 in assay [3] came out at 18000 pM.

Consider `Cn1cc(NC(=O)c2cnn3cccnc23)c(-c2cc(Oc3cccc(CN)c3)ccc2OC(F)F)n1` [Example 13, N-[3-[5-[3-(aminomethyl)phenoxy]-2-(difluoromethoxy)phenyl]-1-methyl-pyrazol-4-yl]pyrazolo[1,5-a]pyrimidine-3-carboxamide], for which the Ki in assay [1] was found to be 430 pM; in assay [2] it was 210 pM. In addition, the IC50 in assay [3] turned out to be 13000 pM.

For orientation: Ki means the equilibrium dissociation constant of an inhibitor or competing ligand from its target.
